From publication PMC7505981, “Preparation of a whole cell catalyst overexpressing acetohydroxyacid synthase of Thermotoga maritima and its application in the syntheses of α-hydroxyketones” (Scientific Reports, 2020)

Molecular target: T1, TmcAHAS (large catalytic subunit of acetohydroxyacid synthase of Thermotoga maritima) (Thermotoga maritima, UniProt Q9WZ18)
T1 construct: gene TM_0548; catalytic subunit alone, without regulatory subunit; gene from genomic DNA in pET28a (NdeI/BamHI), N-terminal His6 tag, E. coli Rosetta(DE3), Ni-NTA purified, about 68 kDa on SDS-PAGE; forward primer after NdeI site encodes MLLDEI
Assay: photometric creatine/alpha-naphthol assay of acetoin at […] nm, Michaelis-Menten fit
Format: biochemical
Conditions: 50 mM phosphate pH 8.0, 80 °C, 10 min, 10 μM FAD, 1 mM ThDP, 10 mM Mg2+; catalytic subunit alone; read-out: Km for pyruvate

T1 sequence (Q9WZ18 entry or part of it): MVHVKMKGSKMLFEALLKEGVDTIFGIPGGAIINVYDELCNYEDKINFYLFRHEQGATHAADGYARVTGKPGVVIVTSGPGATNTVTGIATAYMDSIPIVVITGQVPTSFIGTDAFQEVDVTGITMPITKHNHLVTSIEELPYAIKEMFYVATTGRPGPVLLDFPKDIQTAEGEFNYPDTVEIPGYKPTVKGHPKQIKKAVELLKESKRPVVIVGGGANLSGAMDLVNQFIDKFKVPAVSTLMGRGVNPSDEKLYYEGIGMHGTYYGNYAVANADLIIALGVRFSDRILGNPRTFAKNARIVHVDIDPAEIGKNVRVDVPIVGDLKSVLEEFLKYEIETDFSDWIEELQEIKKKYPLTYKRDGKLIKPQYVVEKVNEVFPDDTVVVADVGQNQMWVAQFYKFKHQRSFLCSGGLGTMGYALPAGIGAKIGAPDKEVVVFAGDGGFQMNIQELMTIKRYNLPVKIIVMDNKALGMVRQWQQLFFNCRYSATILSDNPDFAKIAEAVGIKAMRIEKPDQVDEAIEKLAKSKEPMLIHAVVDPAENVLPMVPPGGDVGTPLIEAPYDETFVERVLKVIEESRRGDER

`CC(=O)C(=O)O` [pyruvate] was tested. Which Km did it give?
The Km was 19.1 ± 1.6 mM.
